Data as given in patent publication US20170105920A1, “COSMETIC METHOD USING METAL PHTHALOCYANINE DERIVATIVE” (I'FORET CO., LTD., priority 2010, published 2017).

Test: Effectiveness test on suppression of fading, one week at 50° C., visual evaluation
Assay type: physicochemical
Procedure: Each beauty essence was kept for one week at 50° C. and its stability was visually evaluated compared to the beauty essence immediately after preparation.
Expert testers judged the beauty essences tested on a scale of three as specified below: […]

SMILES: O=C([O-])CN(CCN(CC(=O)O)CC(=O)O)CC(=O)[O-].[Na+].[Na+] [EDTA-2Na, sodium EDTA-2]
- Judgment of appearance (anti-fading) (anti-fading component 0.10% in recipe of Example 4 (0.01% iron phthalocyanine tetracarboxylic acid)): Δ~X
- fading (in words) (component blended by 0.1%): Marked fading
- fading (in words) (component blended by 0.2%): some fading

SMILES: O=P(O)(O)O[C@H]1[C@H](OP(=O)(O)O)[C@@H](OP(=O)(O)O)[C@H](OP(=O)(O)O)[C@@H](OP(=O)(O)O)[C@H]1OP(=O)(O)O [Phytic acid, phytic acid]
- fading (in words) (component blended by 0.05%): hardly any fading
- fading (in words) (component blended by 0.1%): hardly any fading
